From US20050148553A1, “Use of tigecycline, alone, or in combination with rifampin to treat osteomyelitis and/or septic arthritis” (priority 2003, published 2005)
Read-outs that look alike come from different tables or passages of the source.

Key:
[1] = Pharmacokinetics and tolerability of intravenous tigecycline in humans; type: in vivo, human
[2] = tested on: M. abcessus; test: Susceptibility/MIC of patient isolate, compassionate use study; type: cell-based, Mycobacterium abscessus
[3] = Adverse events and weight variance in infected treated rabbits
Description: All rabbits were monitored weekly for weight variance. […] The key for FIGS. 4A and B is as follows: Control=control group, no treatment; Vancomycin=subcutaneous vancomycin treated group; Vanco+Rifampin=subcutaneous vancomycin with oral rifampin treated group; Gar-936=subcutaneous Gar-936 treated group; Gar-936+Rifampin=subcutaneous Gar-936 with oral Rifampin treated group.

[4] = Antibiotic levels in rabbit serum and bone by diffusion bioassay; type: in vivo, New Zealand white rabbits
Description: Normal NZW rabbit serum (Fisher Scientific) and normal, uninfected rabbit tibia bone were used to generate standard curves for tigecycline (Wyeth-Ayerst Research, Pearl River, N.Y.), vancomycin (Abbott Laboratories, Chicago, Ill.), and rifampin (Merrell Pharmaceuticals Inc. Kansas, Mo.). Bioassays were performed with each drug to generate the standard curves for antibiotic concentration in serum and/or tibial bone.
The organism used for the bioassay was Bacillus cereus ATCC11778. Serum standards were prepared using two-fold serial dilutions with either antibiotic to yield concentrations of 25 μg/ml to 0.20 μg/ml drug in Normal NZW rabbit serum. Bone eluate standards were prepared for tigecycline by thoroughly cleaning noninfected rabbit tibias with 70% ethanol in a sterilized fume hood. Each tibia was broken into small chips of approximately 0.5 cm^2 using a grinder. The chips were placed into a sterile, 50 ml conical centrifuge tube and weighed. One milliliter of sterile, 0.9% normal saline was added for each gram of bone chips. The solution was thoroughly vortexed for two minutes. The resulting bone eluate was allowed to shake at 180 rpm in a cold room at 4° C., for 12 hours. The samples were centrifuged at 4000 rpm for 3 minutes prior to assay, to pellet the chips.
The diameter of the zone of growth inhibition around each well was measured, in millimeters. A standard curve was generated for tigecycline concentration in both serum and bone eluate and for vancomycin in serum by plotting the known antibiotic concentration against its resulting zone of inhibition measurement. […]
Serum samples were stored at −70° C. until the bioassay was performed. […] The diameter of the zone of growth inhibition around each well was measured and concentrations of tigecycline were extrapolated from the standard curve.
Peak and trough levels of antibiotic were determined for Groups 2 and 4 at 1 hour (peak) and 12 hour (trough) after the initial antibiotic administration. Antibiotic concentrations were determined by means of a bioassay. […]

[5] = for ratio of AUC in tissue to AUC in plasma: bone, bone marrow, salivary gland, thyroid, spleen, kidney (each)

Compound: CN(C)c1cc(NC(=O)CNC(C)(C)C)c(O)c2c1C[C@H]1C[C@H]3[C@H](N(C)C)C(O)=C(C(N)=O)C(=O)[C@@]3(O)C(O)=C1C2=O [Tigecycline]
- half-life ([1]; human, in vivo, intravenous, humans): 40 to 60 h
- Vd ([1]; human, in vivo, intravenous, humans, read-out: volume of distribution at steady state): 7 to 14 L/kg
- dose tolerated ([1]; one-hour infusion, human subjects): up to 100 mg
- dose resulting in gastrointestinal intolerance (nausea and vomiting) in all subjects ([1]; twice daily over nine days, 200 ml infusion over one hour, fed): ≥ 75 mg
- dose tolerated ([1]; twice daily, 200 ml infusion over one hour): 25 to 50 mg
- susceptibility of the organism ([2]; M. abscessus patient isolate): susceptible
- MIC ([2]; Mycobacteroides abscessus, M. abcessus from a human patient, read-out: minimum inhibitory concentration): 0.25 µg/mL
- symptoms of gastric dysfunction ([3]; approximately 1.0-1.5 weeks post-antibiotic initiation): mild to severe symptoms of gastric dysfunction
- mean weight gain ([3]; infected rabbits after antibiotic treatment): -0.05 kg
- rabbits that died before completion of treatment ([3]; infected rabbits, 4 weeks treatment): 5
- dosage causing relevant morbidity and mortality ([3]; rabbit model, data not shown): higher than 14 mg/kg per day
- concentration at 12 h ([4]; New Zealand white, rabbit, serum, subcutaneous, uninfected rabbits, 14 mg/kg twice daily, read-out: serum level at 12 hour (trough)): > 200 ng/mL
- antibiotic serum levels (peaks and troughs) ([4]; infected rabbits, tigecycline 14 mg/kg, vancomycin 30 mg/kg twice daily): above minimum inhibitory concentrations

Compound: CN(C)c1cc(NC(=O)CNC(C)(C)C)c(O)c2c1C[C@H]1C[C@H]3[C@H](N(C)C)C(O)=C(C(N)=O)C(=O)[C@@]3(O)C(O)=C1C2=O [[^14C]-Tigecycline]
- ratio of AUC in tissue to AUC in plasma [5]: greater than 10
- ratio of AUC in tissue to AUC in plasma ([5]; listed as carbon-14 tigecycline): > 10
- ratio of AUC in lung to AUC in plasma ([5]; lung): 4.4
